Like-named read-outs stand apart in the source and are kept apart here. Each block holds one compound with its values, some of them ahead of it.
Tests used:
[1] = biological target: Histamine H3 receptor (H3R); details: Table A in S1 File, cited from earlier work
[2] = biological target: Histamine H3 receptor (H3R); details: Table A in S1 File, cited from earlier work; remark: listed apart in the source
hH3R = biological target: T1, hH3R (Homo sapiens, UniProt Q9Y5N1); assay: Radioligand depletion assay with [3H]-N-alpha-methylhistamine on crude hH3R membrane extracts; assay type: binding; details: for Ki: mean of at least three independent experiments, each in triplicates, Cheng-Prusoff; for H3R binding, result in words: radioligand depletion assay against H3R
T1 construct: expressed in transfected cells; host or cells: HEK-293 cells stably expressing hH3R
T1 sequence (Q9Y5N1 whole entry): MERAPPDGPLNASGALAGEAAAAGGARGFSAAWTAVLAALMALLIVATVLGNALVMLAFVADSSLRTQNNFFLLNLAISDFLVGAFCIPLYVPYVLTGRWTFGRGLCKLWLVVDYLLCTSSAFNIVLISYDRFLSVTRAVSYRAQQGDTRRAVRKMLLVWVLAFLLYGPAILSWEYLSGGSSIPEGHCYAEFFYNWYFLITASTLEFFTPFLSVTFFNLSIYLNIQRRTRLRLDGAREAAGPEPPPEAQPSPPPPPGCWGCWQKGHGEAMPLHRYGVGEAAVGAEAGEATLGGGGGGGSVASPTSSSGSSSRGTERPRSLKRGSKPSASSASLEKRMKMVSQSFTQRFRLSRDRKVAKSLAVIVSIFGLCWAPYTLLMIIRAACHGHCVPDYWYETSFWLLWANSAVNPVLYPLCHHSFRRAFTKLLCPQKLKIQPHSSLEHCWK
Description: Radioligand depletion assays were performed as described previously using crude hH3R membrane extracts obtained from HEK-293 cells stably expressing the hH3R [15, 57]. Briefly, crude membrane extracts were incubated with various concentrations of test ligands (between 0.01 nM and 100 μM) and [3H]-N-alpha-methylhistamine. Bound radioligand were harvested through GF/B filters and measured using liquid scintillation counting. Data analysis were performed with GraphPad Prism 6 using non-linear regression. The Ki values for each experiment were obtained according to Cheng-Prusoff and converted to pKi values to allow statistical analysis. Mean values were calculated from at least three independent experiments, each performed in triplicates (Table E in S1 File).

SMILES: c1nc([C@H]2C[C@@H]2CCNCC2CCCCC2)c[nH]1 [CHEMBL214312]
Ki ([1]; ref 7 (S1 File)): 5.3 nM

SMILES: N#CC(C#N)=C1N(CCCN2CCCCC2)CCN1CCCN1CCCCC1 [CHEMBL257391]
Ki ([1]; ref 6 (S1 File)): 2.4 nM

SMILES: C[C@@H]1CCCN1CCc1cc2cc(CNc3ccc(Cl)nn3)ccc2o1 [CHEMBL362952]
Ki ([1]; ref 10 (S1 File)): 0.3 nM

SMILES: C[C@@H]1C[C@@](O)(C#Cc2cccc3ccccc23)[C@@H](C)CN1C [CHEMBL1269844]
IC50 ([2]; ref 3 (S1 File)): 9 nM

SMILES: C[C@@H]1CCCN1CCCOc1ccc(-c2cc(-c3ccccc3)c(=O)n(C)c2)cc1 [CHEMBL1923737]
Ki ([1]; ref 5 (S1 File)): 3.5 nM

SMILES: CCNC(=O)C1CC(F)(c2ccc(CN3CCCC3)c(F)c2)C1 (centres unmarked) [CHEMBL2151197]
Ki ([1]; ref 9 (S1 File)): 2.3 nM

SMILES: CN(C)CCc1ccc(NC(=O)Nc2ccc(CCN(C)C)cc2)cc1 [CHEMBL2387294]
IC50 ([2]; ref 2 (S1 File)): 6.5 nM

SMILES: c1ccc2c(CCNc3ccc(CN4CCOCC4)cc3)c[nH]c2c1 [CHEMBL2419581]
Ki ([1]; ref 4 (S1 File)): 4.3 nM

SMILES: CC(C)N1CCN(C(=O)[C@H]2CC23CCN(C2CCOCC2)CC3)CC1 [CHEMBL3124968]
IC50 ([2]; ref 8 (S1 File)): 8.3 nM

Ki (hH3R): 148 nM | H3R binding, result in words (hH3R): nanomolar concentration ranges
SMILES: O=C(c1csc(-c2ccccc2)n1)N1CCCN(C2CC2)CC1 [compound 5]

Ki (hH3R): 38.2 nM | H3R binding, result in words (hH3R): nanomolar concentration ranges
SMILES: CCN1CCN(C(=O)c2ccc(-c3nc4ccccc4s3)s2)CC1 [compound 6]

H3R binding, result in words (hH3R): inactive
SMILES: Cc1csc(-c2ccc(C(=O)N3CCN(C)CC3)cc2)n1 [compound 8]

Source: PMC6592549, “Ligand-guided homology modeling drives identification of novel histamine H3 receptor ligands” (PLoS ONE, 2019)
